{"source": "patent US20180133221A1", "about": "“ADMINISTRATION OF UBIQUITIN-ACTIVATING ENZYME INHIBITOR AND CHEMOTHERAPEUTIC AGENTS” (Millennium Pharmaceuticals, Inc., priority 2014, published 2018)", "key": {"[1]": {"test_system": "PHTX-14B breast xenograft", "experiment": "PHTX-14B xenograft model, Compound 1 and docetaxel", "assay_type": "in vivo, nude mice", "conditions": "for Tumor Volume Day 28: in mm³ (unit assumed)", "method": "Docetaxel (Henry Schein, Inc., Pittsburgh Pa.) is formulated in 0.9% saline and administered by intravenous injection (IV) once weekly (QW) at 5 mg/kg or 10 mg/kg. […] Tumors were measured twice weekly using vernier calipers."}, "[2]": {"test_system": "PHTX-17C colorectal carcinoma xenograft", "assay_type": "in vivo", "conditions": "for Tumor Volume Day 21: in mm³ (unit assumed)", "from_the_text": "The PHTX-17C colorectal carcinoma xenograft model was established from a patient-derived tumor collected during surgery from a person with moderately differentiated adenocarcinoma.PHTX-17C tumor fragments (approximately 2×2×3 mm^3) were implanted into the subcutaneous space in the right dorsal flank of female nude mice (age 5-7 weeks, Balb/c Nude Mice, Shanghai SINO-British SIPPR/BK Lab Animal Ltd, Shanghai, China) using a 13-gauge trocar. When the mean tumor volume reached approximately 185 mm^3, the animals were randomized into 12 treatment groups (n=5/group).\n(§1) Oxaliplatin (Jiang Su Geng Rui Pharmaceuticals, Inc.) is formulated in 0.9% saline and administered by IP injection once weekly (QW) at 7.5 or 12.5 mg/kg. The once weekly schedule is also described as every 7 days (Q7D).\n(§2) Compound 1 [((1R,2R,3S,4R)-2,3-dihydroxy-4-(2-(3-(trifluoromethylthio)-phenyl)pyrazolo[1,5-a]pyrimidin-7-ylamino)cyclopentyl)methyl sulfamate] is formulated in 10-20% HPbCD in sterile water and administered intravenously (IV) or subcutaneously (SC) on a BIW (twice/week schedule; Monday and Thursday or Tuesday and Friday) for either 2-4 weeks.\n(§3) Tumors were measured twice weekly using vernier calipers. Tumor volumes were calculated using the standard formula V=W^2×L/2,). When mean tumor volumes reached approximately 200 mm^3 for PHTX-24C, 220 mm^3 for PHTX-Lu132, 150 mm^3 for CTG-0256, 260 mm^3 for CTG-0486, 185 mm^3 for PHTX-17C, 260 mm^3 for CTG-0165, 150 mm^3 for PHTX-14B in the study of Compound 1 and paclitaxel, 180 mm^3 for PHTX-14B in the study of Compound 1 and docetaxel, 200 mm^3 for SKOV-3, 220 mm^3 for PHTX-02B in the study of Compound 1 and docetaxel, 250 mm^3 for PHTX-02B in the study of Compound 1 and paclitaxel, 195 mm^3 for CTG-0159, 180 mm^3 for CTG-0012 or 150 mm^3 for Calu-6, mice were randomized into groups of n=5-7/arm as described in the tables below, and injected with vehicle, Compound 1 or agents (docetaxel, paclitaxel, oxaliplatin, cisplatin or carboplatin), or the combination of Compound 1 plus one of the agents, at various doses and schedules as described in tables below. Tumor size and body weight were measured approximately twice a week for the duration of the study. Mice are euthanized when their tumor volume reached 10% of their body weight, or when the average tumor volume of a treatment or control group reached approximately 2000 mm^3. Tumor growth continued to be monitored after the dosing period in some studies. Average tumor volume is reported as a function of time for selected arms of selected studies in the Figures.\n(§4) Measurements from day 0 to day 14, day 19, day 21, or day 28 are analyzed as specified in Tables below. All tumor volumes have a value of 1 added to them before log10 transformation. For each animal, the log tumor volume at day 0 is subtracted from the log tumor volume on the subsequent days. This difference vs. time is used to calculate an area under the curve (AUC) for each animal using the trapezoid rule. […] The synergy score for the combination of agents A and B is defined as\n(§5) 100*(mean(AUCAB)−mean(AUCA)−mean(AUCB)+mean(AUCctl))/mean(AUCctl):\n(§6) where AUCAB, AUCA, AUCB, and AUCctl are the AUC values for animals in the combination group, the A group, the B group, and the control group, respectively. The standard error of the synergy score is computed based on the variation in the AUC values among the animals. […] If the P-value is above 0.05, then the combination is considered to be additive. If the P-value is below 0.05, and the synergy score is less than zero, then the combination is considered to be synergistic."}, "PHTX-24C colon xenograft": {"test_system": "PHTX-24C colon xenograft", "experiment": "PHTX-24C xenograft model, Compound 1 and oxaliplatin", "assay_type": "in vivo, CB-17 SCID mice", "method": "as §1, §2, §3, §4, §5\nwhere AUCAB, AUCA, AUCB, and AUCctl are the AUC values for animals in the combination group, the A group, the B group, and the control group, respectively. […]"}, "[3]": {"test_system": "CTG-0165 human lung NSCLC xenograft", "experiment": "CTG-0165 xenograft model, Compound 1 and cisplatin", "assay_type": "in vivo, Mus musculus/nu/nu mice", "conditions": "for Tumor Volume Day 21: in mm³ (unit assumed)", "method": "CTG-0165 tumor fragments (approximately 2×2×3 mm^3) were implanted into the subcutaneous space in the right dorsal flank of female Mus musculus/nu/nu mice (age 6-9 weeks, Harlan Laboratories, Madison, Wis., USA) using a 13-gauge trocar. When the mean tumor volume reached approximately 260 mm^3, the animals were randomized into 8 treatment groups (n=5/group).\nCisplatin (Teva Pharmaceuticals) is formulated in 0.9% saline and administered by IV injection once weekly (QW) at 7.5 mg/kg. The once weekly schedule is also described as every 7 days (Q7D).\nas §2, §3, §4, §5, §6"}, "[4]": {"test_system": "SKOV-3 ovarian cell-line derived xenograft", "experiment": "SKOV-3 xenograft model, Compound 1 and carboplatin", "assay_type": "in vivo, nude mice", "conditions": "for Tumor Volume Day 14: in mm³ (unit assumed)", "method": "SKOV-3 is an ovarian cell-line derived xenograft. Ten week old female nude mice (Taconic Farms, Inc) were inoculated subcutaneously in flank (cell suspension) with 4.0×10^6 SKOV-3 cells suspended in serum free DMEM+Matrigel. When the mean tumor volume reached approximately 200 mm^3, the animals were randomized into 12 treatment groups (n=5/group).\nCarboplatin (Teva Pharmaceuticals) is formulated in 0.9% saline and administered by IP injection once weekly (QW) at 25, 50, 60, and 75 mg/kg. The once weekly schedule is also described as every 7 days (Q7D).\nas §2, §3, §4, §5, §6"}, "[5]": {"test_system": "PHTX-14B breast xenograft", "experiment": "PHTX-14B xenograft model, Compound 1 and paclitaxel", "assay_type": "in vivo, Balb/c Nude Mice", "conditions": "for Tumor Volume Day 28: in mm³ (unit assumed)", "method": "Paclitaxel (Bristol-Myers Squibb Company) is formulated in 0.9% saline and administered by intravenous injection (IV) on every 4 days (Q4D) or once weekly (QW) at 10 and 20 mg/kg. […] Tumors were measured twice weekly using vernier calipers."}}, "note": "Read-outs that look alike come from different tables or passages of the source."}
{"smiles": "NS(=O)(=O)OC[C@H]1C[C@@H](Nc2ccnc3cc(-c4cccc(SC(F)(F)F)c4)nn23)[C@H](O)[C@@H]1O", "note": "[Compound 1, ((1R,2R,3S,4R)-2,3-dihydroxy-4-(2-(3-(trifluoromethylthio)phenyl)pyrazolo[1,5-a]pyrimidin-7-ylamino)cyclopentyl)methyl sulfamate]", "values": [{"measurement": "Tumor Volume Day 28", "setting": "[1]; 10 mg/kg Compound 1 BIWx3 SC", "result": 499.4}, {"measurement": "Tumor Volume Day 28", "setting": "[1]; 20 mg/kg Compound 1 BIWx3 SC", "result": 399.4}, {"measurement": "tumor growth compared to the vehicle control group", "setting": "[1]; single agent Compound 1 SC at 20 and 10 mg/kg BIW", "result": "inhibited tumor growth"}, {"measurement": "Tumor Volume Day 21", "setting": "[2]; 20 mg/kg Compound 1 BIWx3 IV", "result": 1875.6}, {"measurement": "Tumor Volume Day 21", "setting": "[2]; 25 mg/kg Compound 1 BIWx3 IV", "result": 2159.3}, {"measurement": "Tumor Volume Day 21", "setting": "[2]; 30 mg/kg Compound 1 BIWx3 IV", "result": 1612.7}, {"measurement": "anti-tumor activity compared to vehicle control", "setting": "[2]; single agent Compound 1 IV at 20, 25, 30 mg/kg BIW", "result": "modest anti-tumor activity"}, {"measurement": "Tumor Volume Day 21", "setting": "PHTX-24C colon xenograft; 10 mg/kg Compound 1 BIWx3 IV, in mm³ (unit assumed)", "result": 609.3}, {"measurement": "anti-tumor activity compared to vehicle control", "setting": "PHTX-24C colon xenograft; single agent Compound 1 IV at 10 mk/kg BIW", "result": "modest anti-tumor activity"}, {"measurement": "Tumor Volume Day 21", "setting": "[3]; 6.25 mg/kg Compound 1 BIWx3 IV", "result": 988.8}, {"measurement": "Tumor Volume Day 21", "setting": "[3]; 15 mg/kg Compound 1 BIWx3 IV", "result": 1624.9}, {"measurement": "Tumor Volume Day 21", "setting": "[3]; 20 mg/kg Compound 1 BIWx3 IV", "result": 1476.3}, {"measurement": "anti-tumor activity compared to vehicle control", "setting": "[3]; single agent Compound 1 IV at 20, 15, 6.25 mg/kg BIW", "result": "modest to weak anti-tumor activity"}, {"measurement": "Tumor Volume Day 14", "setting": "[4]; 5 mg/kg Compound 1 BIWx2 IV", "result": 857.2}, {"measurement": "Tumor Volume Day 14", "setting": "[4]; 10 mg/kg Compound 1 BIWx2 IV", "result": 883}, {"measurement": "Tumor Volume Day 14", "setting": "[4]; 15 mg/kg Compound 1 BIWx2 IV", "result": 919.2}, {"measurement": "anti-tumor activity compared to vehicle control", "setting": "[4]; single agent Compound 1 IV at 5, 10 and 15 mg/kg BIW", "result": "modest anti-tumor activity"}, {"measurement": "Tumor Volume Day 28", "setting": "[5]; 10 mg/kg Compound 1 BIWx4 SC", "result": 690.0}, {"measurement": "Tumor Volume Day 28", "setting": "[5]; 20 mg/kg Compound 1 BIWx4 SC", "result": 480.6}, {"measurement": "Tumor Volume Day 28", "setting": "[5]; 30 mg/kg Compound 1 BIWx4 SC", "result": 165.1}, {"measurement": "anti-tumor activity", "setting": "[5]; single agent Compound 1 SC at 30 mg/kg BIW for 4 weeks", "result": "strong anti-tumor activity"}, {"measurement": "anti-tumor activity compared to vehicle control", "setting": "[5]; single agent Compound 1 SC at 10, and 20 mg/kg BIW for 4 weeks", "result": "modest anti-tumor activity"}]}
